Source: patent publication US9296818B2, “Cleavage inhibitors of transforming growth factor beta type I receptor and uses thereof in cancer therapy” (priority 2011, dated 2016)
Entries after “also recorded” stand apart in the source; their conditions may differ.

Assays:
[1] = test system: PC-3U cells; assay: CytoSelect cell invasion assay, PC-3U; type: cell-based, human
Procedure: (§1) Invasion assays were performed using the CytoSelect Cell Invasion Assay (Cell Biolabs, Inc., San Diego, Calif.). Briefly, the basement membrane layer of the cell culture inserts were rehydrated in 300 μl serum-free RPMI-1640 and 2×10^6 cells were seeded into the upper sections of the chambers in serum-free RPMI-1640 with or without TGFβ. The lower wells of the invasion plates were filled with 500 μl RPMI supplemented with 10% FBS. Non-invasive cells were removed from the upper chamber and invasive cells were stained with crystal violet cell stain solution. Invasive cells were photographed with a Leica DMR light microscope. Colorimetric quantification was performed by transferring inserts into 200 μl of extraction solution for 10 min and then, transferring to a 96-well microtiter plate. The OD at 560 nm was determined with a plate reader (Supplementary Information FIG. S5a).
The cancer cell invasion assay described in Example 1 above was performed to examine the ability of γ-secretase inhibitors in suppressing cancel cell invasion. Prostate cancers cells PC-3U, human lung carcinoma cells A549, and human breast carcinoma cells MDA-MB-231 were cultured following routine procedures, treated with TGFβ in the presence of absence of L-685,458, a γ-secretase inhibitor. Cells were visualized by staining with a crystal violet cell staining solution. […]

[2] = test system: MDA-MB-231 cells; assay: CytoSelect cell invasion assay, MDA-MB-231; type: cell-based, human
Procedure: as §1
(§2) The cancer cell invasion assay described in Example 1 above was performed to examine the ability of γ-secretase inhibitors in suppressing cancel cell invasion. Prostate cancers cells PC-3U, human lung carcinoma cells A549, and human breast carcinoma cells MDA-MB-231 were cultured following routine procedures, treated with TGFβ in the presence of absence of L-685,458, a γ-secretase inhibitor. Cells were visualized by staining with a crystal violet cell staining solution.

[3] = test system: A549 cells; assay: CytoSelect cell invasion assay, A549; type: cell-based, human
Procedure: as §1, §2

[4] = test system: TβRI; assay: Formation of TβRI ICD (immunoblotting of cell lysates); type: cell-based, human; conditions: PC-3U cells
Procedure: (§3) Protein-G Sepharose was obtained from GE Healthcare.; LumiLight Western blotting substrate and Pefabloc were from Roche, PageRuler prestained protein ladder was from Fermentas; and TAPI-2 was from BIOMOL Research Laboratories Inc. TAPI-2 was used at concentrations of 10-20 μM. The p38α/β inhibitor (SB203580) was purchased from Calbiochem (it was used at a concentration of 10 μM). PKCζ pseudosubstrate was from TOCRIS Bioscience and used at concentrations of 10-50 μM. The PKCζ activator, phorbol 12-myristate 13-acetate (PMA, referred to as TPA in our paper), and a TβRI inhibitor (SB505124) were purchased from Sigma. The SB505124 inhibitor was used at a concentration of 10 μM and the TPA at a concentration of 100 nM. The general PKCζ inhibitor, GF109203X, was purchased from Sigma. All inhibitors were added to cells 1 h before TGFβ stimulation.
(§4) Cells were starved for 12-18 h and then stimulated with TGFβ for the indicated time periods, washed twice in ice-cold PBS, and lysed in ice-cold lysis buffer (150 mM NaCl, 50 mM Tris pH 8.0, 0.5% (v/v) deoxycholate, 1% (v/v) NP40, 10% (v/v) glycerol, 1 mM aprotinin, 1 mM Pefabloc and 2 mM sodium orthovanadate). After centrifugation, supernatants were collected and protein concentrations were determined using the bicinchoninic acid (BCA) protein measurement kit (Nordic Biolabs). Equal volumes were subjected to immunoprecipitation. […]

[5] = test system: TβRI ICD; assay: Nuclear accumulation of TβRI ICD (immunofluorescence, nuclear fractionation); type: cell-based, human
Procedure: Before TGF-β1 stimulation, the cells were starved for 12-18 h in medium supplemented with 1% FBS. In all assays, the cells were stimulated with 10 ng/ml TGFβ1 (R&D System, UK).
as §3
as §4, with “immunoprecipitation. Equal amounts of protein from total cell lysates and immunoprecipitations were subjected to electrophoresis on 6%, 10%, 12%, or 4-12% gradient SDS-polyacrylamide gels (SDS-PAGE), blotted on to polyvinylidine difluoride membranes, and subjected to immunoblotting, as previously described.^23 The […] cell lysate from Santa Cruz was used as a positive control for TβRI.” for “immunoprecipitation.”

[6] = biological target: T1, PKCζ (Homo sapiens, UniProt Q05513); assay: Activation of PKCζ (immunoblotting for p-PKCζ); type: cell-based; conditions: PC-3U cells
T1 construct: Cell lysates from PC-3U cells treated with TGFβ or TPA were subjected to immunoblotting with an antiserum against pPKCζ; endogenous in cells; host or cells: PC-3U (human prostate cancer cell line)
T1 sequence (Q05513 1-592): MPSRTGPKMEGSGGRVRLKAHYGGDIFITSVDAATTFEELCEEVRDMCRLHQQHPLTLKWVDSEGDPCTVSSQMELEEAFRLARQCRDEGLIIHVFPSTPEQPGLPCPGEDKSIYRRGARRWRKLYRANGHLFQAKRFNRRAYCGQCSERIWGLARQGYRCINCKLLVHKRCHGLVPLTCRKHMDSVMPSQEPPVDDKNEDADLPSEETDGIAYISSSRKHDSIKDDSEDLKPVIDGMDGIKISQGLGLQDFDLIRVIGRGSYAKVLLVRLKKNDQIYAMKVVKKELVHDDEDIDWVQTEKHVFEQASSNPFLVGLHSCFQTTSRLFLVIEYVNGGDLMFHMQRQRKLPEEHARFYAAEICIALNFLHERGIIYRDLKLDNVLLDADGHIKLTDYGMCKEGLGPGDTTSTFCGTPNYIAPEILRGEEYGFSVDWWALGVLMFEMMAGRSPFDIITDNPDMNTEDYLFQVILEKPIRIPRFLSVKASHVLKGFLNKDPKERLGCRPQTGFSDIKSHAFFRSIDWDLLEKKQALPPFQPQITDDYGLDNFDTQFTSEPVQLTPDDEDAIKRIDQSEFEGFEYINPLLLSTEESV
Procedure: Cells were starved for 12-18 h and then stimulated with TGFβ for the indicated time periods, washed twice in ice-cold PBS, and lysed in ice-cold lysis buffer (150 mM NaCl, 50 mM Tris pH 8.0, 0.5% (v/v) deoxycholate, 1% (v/v) NP40, 10% (v/v) glycerol, 1 mM aprotinin, 1 mM Pefabloc and 2 mM sodium orthovanadate). After centrifugation, supernatants were collected and protein concentrations were determined using the bicinchoninic acid (BCA) protein measurement kit (Nordic Biolabs). Equal volumes were subjected to immunoprecipitation. Equal amounts of protein from total cell lysates and immunoprecipitations were subjected to electrophoresis on 6%, 10%, 12%, or 4-12% gradient SDS-polyacrylamide gels (SDS-PAGE), blotted on to polyvinylidine difluoride membranes, and subjected to immunoblotting, as previously described.^23 The […] cell lysate from Santa Cruz was used as a positive control for TβRI. The ubiquitination assays, immunofluorescence assays, and transient transfections were performed as previously described.^5,23,24 Photomicrographs were obtained with a Zeiss 510 Meta (Carl Zeiss Microimaging, Inc.) equipped with a digital camera (RET-EXi-F-M-12-C) from Q-imaging.

CC(C)C[C@H](NC(=O)[C@H](Cc1ccccc1)C[C@@H](O)[C@H](Cc1ccccc1)NC(=O)OC(C)(C)C)C(=O)N[C@@H](Cc1ccccc1)C(N)=O [L-685,458]
TGFβ-induced cancer cell invasion [1]: significantly suppressed
TGFβ-induced cancer cell invasion [2]: significantly suppressed
TGFβ-induced cancer cell invasion [3]: significantly suppressed

Cc1cccc(-c2[nH]c(C(C)(C)C)nc2-c2ccc3c(c2)OCO3)n1 [SB505124]
formation of the TβRI ICD [4]: no major effect

CC(C)C[C@H](CC(=O)NO)C(=O)N[C@H](C(=O)N[C@@H](C)C(=O)NCCN)C(C)(C)C [TAPI-2]
nuclear translocation/accumulation of TβRI ICD in response to TGFβ stimulation ([5]; PC-3U cells, TGFβ, inhibitor added 1 h before TGFβ, V22 antibody): reduction; also recorded: partly prevented

phorbol 12-myristate 13-acetate [TPA]
ICD in the nuclear fraction ([5]; HA-caTβRI-expressing PC-3U cells treated with TPA): accumulated in the nuclear fraction
nuclear accumulation of endogenous TβRI ICD, immunofluorescence ([5]; PC-3U cells treated with TPA alone, 6 h): led to nuclear accumulation
activation of PKCζ (p-PKCζ) [6]: activated
